Test results reported in patent publication US20180036289A1 (Gilead Sciences, Inc., priority 2016, published 2018).

Tests used:
786-O = experiment: Cell proliferation assay (ATPlite), drug with vs without cobicistat; type: cell-based; details: 786-O cell line; 120 hours incubation
Description: (§1) All cell lines were obtained from the American Type Culture Collection (ATCC) Manassas, Va. (US). Master and working cell banks (MCB and WCB) were prepared by subculturing in ATCC-recommended media and freezing protocols (www.atcc.org). Cell line stocks for the assays were prepared from the WCB. The MCB, WCBs and assay stocks were prepared within respectively 3, 6 and 9 passages of the ATCC vial.
(§2) Solid powders of reference compounds were weighed on a calibrated balance and dissolved in 100% DMSO. DMSO samples were stored at room temperature. At the day of the experiment, the compound stock was diluted in 3.16 fold steps in 100% DMSO to obtain a 9-point dilution series. This was further diluted 31.6 times in 20 mM sterile Hepes buffer pH 7.4. A volume of 5 μl was transferred to the cells to generate a test concentration range from 3.16×10^−5M to 3.16×10^−9 M in duplicate. The final DMSO concentration during incubation was […] in all wells.
(§3) An assay stock was thawed and diluted in its ATCC recommended medium and dispensed in a 384-well plate, depending on the cell line used, at a concentration of 200-3200 cells per well in 45 μl medium. For each used cell line the optimal cell density is used. The margins of the plate were filled with phosphate-buffered saline. Plated cells were incubated in a humidified atmosphere of 5% CO2 at 37° C. After 24 hours, 5 μl of compound dilution was added and plates were further incubated for another 120 hours. After 120 hours, 25 μl of ATPlite 1Step™ (PerkinElmer) solution was added to each well, and subsequently shaken for 2 minutes. After 10 minutes of incubation in the dark, the luminescence was recorded on an Envision multimode reader (PerkinElmer).
(§4) IC50s were calculated by non-linear regression using IDBS XLfit 5. The percentage growth after 120 h (%-growth) was calculated as follows: 100%×(luminescencet=120h/luminescenceuntreated,t=120h). This was fitted to the ^10log compound concentration (conc) by a 4-parameter logistics curve: %−growth=bottom+(top−bottom)/(1+10^(log IC50-conc)*hill)), where hill is the Hill-coefficient, and bottom and top the asymptotic minimum and maximum cell growth that the compound allows in that assay.

A-427 = experiment: as above; type: cell-based; details: A-427 cell line; 120 hours incubation
Description: as §1, §2, §3, §4

A-498 = experiment: as above; type: cell-based; details: A-498 cell line; 120 hours incubation
Description: as §1, §2, §3, §4

A-549 = experiment: as above; type: cell-based; details: A-549 cell line; 120 hours incubation
Description: as §1, §2, §3, §4

A-704 = experiment: as above; type: cell-based; details: A-704 cell line; 120 hours incubation
Description: as §1, §2, §3, §4

A375 = experiment: as above; type: cell-based; details: A375 cell line; 120 hours incubation
Description: as §1, §2, §3, §4

ACHN = experiment: as above; type: cell-based; details: ACHN cell line; 120 hours incubation
Description: as §1, §2, §3, §4

AN3 CA = experiment: as above; type: cell-based; details: AN3 CA cell line; 120 hours incubation
Description: as §1, §2, §3, §4

AU-565 = experiment: as above; type: cell-based; details: AU-565 cell line; 120 hours incubation
Description: as §1, §2, §3, §4

BxPC-3 = experiment: as above; type: cell-based; details: BxPC-3 cell line; 120 hours incubation
Description: as §1, §2, §3, §4

CAL 27 = experiment: as above; type: cell-based; details: CAL 27 cell line; 120 hours incubation
Description: as §1, §2, §3, §4

CCRF-CEM = experiment: as above; type: cell-based; details: CCRF-CEM cell line; 120 hours incubation
Description: as §1, §2, §3, §4

DU 145 = experiment: as above; type: cell-based; details: DU 145 cell line; 120 hours incubation
Description: as §1, §2, §3, §4

DoTc2 4510 = experiment: as above; type: cell-based; details: DoTc2 4510 cell line; 120 hours incubation
Description: as §1, §2, §3, §4

K-562 = experiment: as above; type: cell-based; details: K-562 cell line; 120 hours incubation
Description: as §1, §2, §3, §4

KU812 = experiment: as above; type: cell-based; details: KU812 cell line; 120 hours incubation
Description: as §1, §2, §3, §4

LNCaP FGC = experiment: as above; type: cell-based; details: LNCaP FGC cell line; 120 hours incubation
Description: as §1, §2, §3, §4

LoVo = experiment: as above; type: cell-based; details: LoVo cell line; 120 hours incubation
Description: as §1, §2, §3, §4

MCF7 = experiment: as above; type: cell-based; details: MCF7 cell line; 120 hours incubation
Description: as §1, §2, §3, §4

MeWo = experiment: as above; type: cell-based; details: MeWo cell line; 120 hours incubation
Description: as §1, §2, §3, §4

NCI-H82 = experiment: as above; type: cell-based; details: NCI-H82 cell line; 120 hours incubation
Description: as §1, §2, §3, §4

RPMI-7951 = experiment: as above; type: cell-based; details: RPMI-7951 cell line; 120 hours incubation
Description: as §1, §2, §3, §4

RT4 = experiment: as above; type: cell-based; details: RT4 cell line; 120 hours incubation
Description: as §1, §2, §3, §4

SK-N-AS = experiment: as above; type: cell-based; details: SK-N-AS cell line; 120 hours incubation
Description: as §1, §2, §3, §4

SNU-C2B = experiment: as above; type: cell-based; details: SNU-C2B cell line; 120 hours incubation
Description: as §1, §2, §3, §4

SR = experiment: as above; type: cell-based; details: SR cell line; 120 hours incubation
Description: as §1, §2, §3, §4

SW620 = experiment: as above; type: cell-based; details: SW620 cell line; 120 hours incubation
Description: as §1, §2, §3, §4

T24 = experiment: as above; type: cell-based; details: T24 cell line; 120 hours incubation
Description: as §1, §2, §3, §4

VA-ES-BJ = experiment: as above; type: cell-based; details: VA-ES-BJ cell line; 120 hours incubation
Description: as §1, §2, §3, §4

TT = TT cell line; 120 hours incubation
Description: as §1, §2, §3, §4

SMILES | Fold change in IC50 (IC50 [Drug + Cobicistat]/IC50 [Drug]) (786-O) [fold] | Fold change in IC50 (IC50 [Drug + Cobicistat]/IC50 [Drug]) (A-427) [fold] | Fold change in IC50 (IC50 [Drug + Cobicistat]/IC50 [Drug]) (A-498) [fold] | Fold change in IC50 (IC50 [Drug + Cobicistat]/IC50 [Drug]) (A-549) [fold] | Fold change in IC50 (IC50 [Drug + Cobicistat]/IC50 [Drug]) (A-704) [fold] | Fold change in IC50 (IC50 [Drug + Cobicistat]/IC50 [Drug]) (A375) [fold] | Fold change in IC50 (IC50 [Drug + Cobicistat]/IC50 [Drug]) (ACHN) [fold] | Fold change in IC50 (IC50 [Drug + Cobicistat]/IC50 [Drug]) (AN3 CA) [fold] | Fold change in IC50 (IC50 [Drug + Cobicistat]/IC50 [Drug]) (AU-565) [fold] | Fold change in IC50 (IC50 [Drug + Cobicistat]/IC50 [Drug]) (BxPC-3) [fold] | Fold change in IC50 (IC50 [Drug + Cobicistat]/IC50 [Drug]) (CAL 27) [fold] | Fold change in IC50 (IC50 [Drug + Cobicistat]/IC50 [Drug]) (CCRF-CEM) [fold] | Fold change in IC50 (IC50 [Drug + Cobicistat]/IC50 [Drug]) (DU 145) [fold] | Fold change in IC50 (IC50 [Drug + Cobicistat]/IC50 [Drug]) (DoTc2 4510) [fold] | Fold change in IC50 (IC50 [Drug + Cobicistat]/IC50 [Drug]) (K-562) [fold] | Fold change in IC50 (IC50 [Drug + Cobicistat]/IC50 [Drug]) (KU812) [fold] | Fold change in IC50 (IC50 [Drug + Cobicistat]/IC50 [Drug]) (LNCaP FGC) [fold] | Fold change in IC50 (IC50 [Drug + Cobicistat]/IC50 [Drug]) (LoVo) [fold] | Fold change in IC50 (IC50 [Drug + Cobicistat]/IC50 [Drug]) (MCF7) [fold] | Fold change in IC50 (IC50 [Drug + Cobicistat]/IC50 [Drug]) (MeWo) [fold] | also measured
COc1cccc2c1C(=O)c1c(O)c3c(c(O)c1C2=O)C[C@@](O)(C(=O)CO)C[C@@H]3O[C@H]1C[C@H](N)[C@H](O)[C@H](C)O1 [doxorubicin] | 2.3 | 1.5 | 1.2 | 0.8 | 1.3 | 2.2 | 2.2 | 2.0 | 2.1 | 2.2 | 1.9 | 2.7 | 2.1 | 1.7 | 2.5 | 2.9 | 1.8 | 2.0 | 1.9 | 2.1 | Fold change in IC50 (IC50 [Drug + Cobicistat]/IC50 [Drug]) (NCI-H82): 2.6 fold; Fold change in IC50 (IC50 [Drug + Cobicistat]/IC50 [Drug]) (RPMI-7951): 2.3 fold; Fold change in IC50 (IC50 [Drug + Cobicistat]/IC50 [Drug]) (RT4): 2.7 fold; Fold change in IC50 (IC50 [Drug + Cobicistat]/IC50 [Drug]) (SK-N-AS): 2.3 fold; Fold change in IC50 (IC50 [Drug + Cobicistat]/IC50 [Drug]) (SNU-C2B): 1.2 fold; Fold change in IC50 (IC50 [Drug + Cobicistat]/IC50 [Drug]) (SR): 1.8 fold; Fold change in IC50 (IC50 [Drug + Cobicistat]/IC50 [Drug]) (SW620): 2.6 fold; Fold change in IC50 (IC50 [Drug + Cobicistat]/IC50 [Drug]) (T24): 1.8 fold; Fold change in IC50 (IC50 [Drug + Cobicistat]/IC50 [Drug]) (VA-ES-BJ): 2.8 fold; Fold change in IC50 (IC50 [Drug + Cobicistat]/IC50 [Drug]) (TT): 1.1 fold
CC[C@]1(O)C[C@@H]2CN(CCc3c([nH]c4ccccc34)[C@@](C(=O)OC)(c3cc4c(cc3OC)N(C)[C@H]3[C@@](O)(C(=O)OC)[C@H](OC(C)=O)[C@]5(CC)C=CCN6CC[C@]43[C@@H]65)C2)C1 [vinblastine] | 2.5 | 2.7 | 3.8 | 2.3 | 3.8 | 3.4 | 3.8 | 3.9 | 3.0 | 2.4 | 2.8 | 3.3 | 5.4 | 5.0 | 2.6 | 4.4 | 4.0 | 1.9 | 5.3 | 3.2 | Fold change in IC50 (IC50 [Drug + Cobicistat]/IC50 [Drug]) (NCI-H82): 3.5 fold; Fold change in IC50 (IC50 [Drug + Cobicistat]/IC50 [Drug]) (RPMI-7951): 3.2 fold; Fold change in IC50 (IC50 [Drug + Cobicistat]/IC50 [Drug]) (RT4): 4.9 fold; Fold change in IC50 (IC50 [Drug + Cobicistat]/IC50 [Drug]) (SK-N-AS): 3.7 fold; Fold change in IC50 (IC50 [Drug + Cobicistat]/IC50 [Drug]) (SNU-C2B): 4.5 fold; Fold change in IC50 (IC50 [Drug + Cobicistat]/IC50 [Drug]) (SR): 4.0 fold; Fold change in IC50 (IC50 [Drug + Cobicistat]/IC50 [Drug]) (SW620): 2.7 fold; Fold change in IC50 (IC50 [Drug + Cobicistat]/IC50 [Drug]) (T24): 5.2 fold; Fold change in IC50 (IC50 [Drug + Cobicistat]/IC50 [Drug]) (VA-ES-BJ): 4.3 fold; Fold change in IC50 (IC50 [Drug + Cobicistat]/IC50 [Drug]) (TT): 8.7 fold
